Data on one molecule can be found in publication PMC5592152 (Bioorganic & medicinal chemistry letters, 2017).

Some targets named below: α4β2 nAChR (Homo sapiens, UniProt P17787+P43681); α3β4 nAChR (Homo sapiens, UniProt P30926+P32297); α7 nAChR (Homo sapiens, UniProt P36544).
What all share (experiment): electrophysiological experiments, voltage clamp of oocytes
Format in all cases: cell-based

Sequence of α7 nAChR (P36544 23-502): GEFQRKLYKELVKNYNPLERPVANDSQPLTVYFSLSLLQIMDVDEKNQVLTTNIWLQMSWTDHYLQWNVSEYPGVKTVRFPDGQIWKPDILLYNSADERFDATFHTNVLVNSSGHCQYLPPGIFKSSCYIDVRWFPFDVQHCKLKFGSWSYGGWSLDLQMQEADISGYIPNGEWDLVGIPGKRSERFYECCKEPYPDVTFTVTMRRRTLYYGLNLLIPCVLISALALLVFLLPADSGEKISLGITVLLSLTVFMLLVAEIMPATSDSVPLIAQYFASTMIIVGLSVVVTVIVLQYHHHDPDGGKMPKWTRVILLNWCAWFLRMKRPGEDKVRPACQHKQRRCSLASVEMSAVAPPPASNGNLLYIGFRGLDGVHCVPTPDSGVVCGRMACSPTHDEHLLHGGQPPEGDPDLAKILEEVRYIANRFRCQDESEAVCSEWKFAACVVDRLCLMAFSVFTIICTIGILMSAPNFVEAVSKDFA
Sequence of α4β2 nAChR (P43681 29-627 limits assumed): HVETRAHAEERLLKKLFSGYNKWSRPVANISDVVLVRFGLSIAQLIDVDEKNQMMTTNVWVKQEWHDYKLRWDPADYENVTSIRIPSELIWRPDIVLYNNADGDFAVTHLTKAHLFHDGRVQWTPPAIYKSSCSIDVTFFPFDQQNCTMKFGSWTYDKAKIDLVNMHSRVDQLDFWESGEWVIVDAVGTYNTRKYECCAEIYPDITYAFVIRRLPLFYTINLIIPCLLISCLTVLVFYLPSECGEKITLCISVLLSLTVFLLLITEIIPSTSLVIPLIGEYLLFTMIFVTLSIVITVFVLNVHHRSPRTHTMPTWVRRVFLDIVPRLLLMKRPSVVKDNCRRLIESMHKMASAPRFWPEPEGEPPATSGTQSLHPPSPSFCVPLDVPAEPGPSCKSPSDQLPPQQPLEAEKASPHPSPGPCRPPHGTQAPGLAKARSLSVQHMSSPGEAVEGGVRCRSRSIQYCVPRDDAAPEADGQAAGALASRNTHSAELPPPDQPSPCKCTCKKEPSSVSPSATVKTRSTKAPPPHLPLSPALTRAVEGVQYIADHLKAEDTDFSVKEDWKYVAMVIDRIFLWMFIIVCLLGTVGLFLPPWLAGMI
Sequence of α4β2 nAChR (P17787 26-502): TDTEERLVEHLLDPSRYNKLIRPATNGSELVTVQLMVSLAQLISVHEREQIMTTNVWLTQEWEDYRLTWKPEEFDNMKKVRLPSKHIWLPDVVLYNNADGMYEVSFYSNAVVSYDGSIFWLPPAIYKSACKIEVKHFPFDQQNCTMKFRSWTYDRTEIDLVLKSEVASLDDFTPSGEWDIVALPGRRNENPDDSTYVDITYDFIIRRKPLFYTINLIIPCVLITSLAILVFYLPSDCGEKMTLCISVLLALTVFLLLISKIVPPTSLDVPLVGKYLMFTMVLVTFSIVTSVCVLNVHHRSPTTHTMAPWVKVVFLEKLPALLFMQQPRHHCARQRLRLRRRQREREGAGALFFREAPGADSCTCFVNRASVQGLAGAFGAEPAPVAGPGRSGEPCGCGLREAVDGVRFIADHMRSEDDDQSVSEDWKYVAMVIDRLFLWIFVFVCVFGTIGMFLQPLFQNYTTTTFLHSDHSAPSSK
Sequence of α3β4 nAChR (P32297 32-505): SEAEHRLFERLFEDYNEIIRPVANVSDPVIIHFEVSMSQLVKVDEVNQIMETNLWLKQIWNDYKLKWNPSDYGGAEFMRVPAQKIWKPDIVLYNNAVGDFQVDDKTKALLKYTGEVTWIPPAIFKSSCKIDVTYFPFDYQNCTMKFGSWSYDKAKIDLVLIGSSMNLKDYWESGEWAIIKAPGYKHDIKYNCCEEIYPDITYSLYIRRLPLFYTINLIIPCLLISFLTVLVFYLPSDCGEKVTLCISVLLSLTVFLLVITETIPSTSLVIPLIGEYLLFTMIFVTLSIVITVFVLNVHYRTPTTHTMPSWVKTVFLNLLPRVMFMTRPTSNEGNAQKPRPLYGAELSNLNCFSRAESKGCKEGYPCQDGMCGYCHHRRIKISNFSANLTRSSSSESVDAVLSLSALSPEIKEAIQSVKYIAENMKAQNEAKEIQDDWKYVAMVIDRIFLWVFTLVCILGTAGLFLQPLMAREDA
Sequence of α3β4 nAChR (P30926 22-498): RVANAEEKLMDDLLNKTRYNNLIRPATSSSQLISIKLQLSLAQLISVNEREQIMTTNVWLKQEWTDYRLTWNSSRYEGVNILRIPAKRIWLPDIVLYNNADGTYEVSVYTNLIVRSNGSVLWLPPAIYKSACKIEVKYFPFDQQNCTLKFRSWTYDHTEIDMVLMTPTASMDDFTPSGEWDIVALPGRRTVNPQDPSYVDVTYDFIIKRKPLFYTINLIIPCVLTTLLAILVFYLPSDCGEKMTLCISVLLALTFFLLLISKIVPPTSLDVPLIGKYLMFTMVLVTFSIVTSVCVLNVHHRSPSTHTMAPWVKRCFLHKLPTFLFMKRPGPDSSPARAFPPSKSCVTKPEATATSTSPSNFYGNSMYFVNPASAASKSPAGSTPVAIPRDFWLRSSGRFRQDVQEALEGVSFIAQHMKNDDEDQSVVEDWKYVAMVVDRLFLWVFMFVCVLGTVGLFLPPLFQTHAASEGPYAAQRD

Consider `CN1CCC=C(c2cnc(F)c(-c3ccccc3)c2)C1` [Compound 3a], for which the agonist activity result at α4β2 nAChR (30 μM for α4β2, normalized to control ACh response) is “no significant agonist activity”; at α3β4 nAChR (100 μM for α3β4, normalized to control ACh response), “no significant agonist activity”; at α7 nAChR (60 μM for α7, normalized to control ACh response) it was “no significant agonist activity”. Besides, the antagonist activity result was “no significant antagonist activity” at α4β2 nAChR (compound at 100 μM, with ACh 30 μM); “significantly antagonized” at α3β4 nAChR (compound at 100 μM, with ACh 100 μM); “no significant antagonist activity” at α7 nAChR (compound at 100 μM, with ACh 60 μM).
